Source: patent publication US8415469B2, “Compounds and methods for kinase modulation, and indications therefor” (Plexxikon Inc., priority 2005, dated 2013)

Assays:
Format in all cases: biochemical
PDGFRB = target: T1, PDGFRB (Homo sapiens, UniProt P09619); assay: Z'-Lyte FRET kinase assay (Invitrogen), PDGFRB; conditions: read-out: IC50, activity toward kinase PDGFRB
T1 construct: purchased Invitrogen (Carlsbad, Calif.), screening service
Text: (§1) The effect of potential modulators of kinase activity can be measured in a variety of different assays known in the art. For example, direct radiometric, indirect FRET or AlphaScreen assays may be used to assess the level of phosphorylation of a substrate in the presence of test compounds in order to determine the inhibitory affect of the compound on the kinase. Invitrogen (Carlsbad, Calif.) uses a FRET based assay for Btk, EGFR, EphB2, Flt3, lrak4, Kdr, MAP2K1, MAPKAPK2, PDGFRB, PKC theta, Stk6 and Yes. For these assays, compounds of the invention were screened by Invitrogen using Z′-Lyte™ kinase assay.
Briefly, the Invitrogen kinase assay involves use of a specific peptide substrate optimized for each kinase, containing a fluorophore at each end that make up the FRET pair. The peptide sensitivity to proteolytic cleavage depends on phosphorylation of the peptide. […] The extent of phosphorylation is determined from the emission ratio, which is low when the kinase is active (phosphorylated peptide is not cleaved, FRET pair connected) or higher for inhibited kinase (non-phosphorylated peptide is cleaved, FRET pair separated). […] Reaction conditions for each kinase are determined to provide optimal reaction times, incubation temperature, kinase and ATP concentrations. […] The fluorescence signals are measured to determine the emission ratio.

EphA2 = EphA2 (Homo sapiens, UniProt P29317); assay: AlphaScreen kinase assay, EphA2; conditions: read-out: IC50, activity toward kinase EphA2
Chain of EphA2 (P29317 24-976): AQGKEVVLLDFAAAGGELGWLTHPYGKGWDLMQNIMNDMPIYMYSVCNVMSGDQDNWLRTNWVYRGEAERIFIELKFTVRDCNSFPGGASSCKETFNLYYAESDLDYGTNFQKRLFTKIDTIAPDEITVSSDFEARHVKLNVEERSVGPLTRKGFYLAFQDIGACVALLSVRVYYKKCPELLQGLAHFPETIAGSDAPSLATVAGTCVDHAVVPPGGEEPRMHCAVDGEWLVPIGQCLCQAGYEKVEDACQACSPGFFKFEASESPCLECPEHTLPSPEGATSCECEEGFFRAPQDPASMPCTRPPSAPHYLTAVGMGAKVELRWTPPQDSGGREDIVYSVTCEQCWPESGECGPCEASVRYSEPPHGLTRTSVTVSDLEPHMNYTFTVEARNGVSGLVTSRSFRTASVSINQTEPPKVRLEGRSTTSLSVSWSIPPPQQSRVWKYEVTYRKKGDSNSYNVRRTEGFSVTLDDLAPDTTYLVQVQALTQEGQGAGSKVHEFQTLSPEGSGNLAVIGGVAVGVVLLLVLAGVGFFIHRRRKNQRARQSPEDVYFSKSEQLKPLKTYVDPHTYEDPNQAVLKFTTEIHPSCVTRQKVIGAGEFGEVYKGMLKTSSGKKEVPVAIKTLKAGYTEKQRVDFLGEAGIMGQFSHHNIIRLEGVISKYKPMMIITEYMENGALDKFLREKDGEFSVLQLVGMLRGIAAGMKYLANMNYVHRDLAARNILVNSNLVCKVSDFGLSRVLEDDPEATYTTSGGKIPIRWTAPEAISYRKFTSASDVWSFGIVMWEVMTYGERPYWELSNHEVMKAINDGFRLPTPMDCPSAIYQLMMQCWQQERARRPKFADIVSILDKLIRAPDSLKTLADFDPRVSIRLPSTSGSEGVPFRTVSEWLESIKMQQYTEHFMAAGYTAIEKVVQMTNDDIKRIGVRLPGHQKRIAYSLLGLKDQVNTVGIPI
Text: (§2) AlphaScreen assay was used to screen additional kinases. The assay is similarly dependent on the phosphorylation of a peptide substrate. In this assay, an antibody that recognizes phosphorylated substrate is bound to an acceptor bead. The peptide substrate is attached to biotin, which binds to a donor head that contains streptavidin. Thus phosphorylated substrate is bound by antibody and streptavidin, bringing the donor and acceptor heads into close proximity when kinase is not inhibited. The donor produces singlet oxygen which results in emission from the acceptor when they are in close proximity. Conversely, when kinase is inhibited, the donor and acceptor beads are not associated and the emission from the acceptor is reduced.
(§3) AlphaScreen assays were done using compounds dissolved in DMSO to a concentration of 20 mM. The compounds were diluted accordingly to the desired final concentrations in each sample well, using 1:3 serial dilution for a total of 8 concentration points.

Irak4 = target: T2, Irak4 (Homo sapiens, UniProt Q9NWZ3); assay: Z'-Lyte FRET kinase assay (Invitrogen), Irak4; conditions: read-out: IC50, activity toward kinase Irak4
T2 construct: purchased Invitrogen (assay run by Invitrogen)
T2 sequence (Q9NWZ3 1-460): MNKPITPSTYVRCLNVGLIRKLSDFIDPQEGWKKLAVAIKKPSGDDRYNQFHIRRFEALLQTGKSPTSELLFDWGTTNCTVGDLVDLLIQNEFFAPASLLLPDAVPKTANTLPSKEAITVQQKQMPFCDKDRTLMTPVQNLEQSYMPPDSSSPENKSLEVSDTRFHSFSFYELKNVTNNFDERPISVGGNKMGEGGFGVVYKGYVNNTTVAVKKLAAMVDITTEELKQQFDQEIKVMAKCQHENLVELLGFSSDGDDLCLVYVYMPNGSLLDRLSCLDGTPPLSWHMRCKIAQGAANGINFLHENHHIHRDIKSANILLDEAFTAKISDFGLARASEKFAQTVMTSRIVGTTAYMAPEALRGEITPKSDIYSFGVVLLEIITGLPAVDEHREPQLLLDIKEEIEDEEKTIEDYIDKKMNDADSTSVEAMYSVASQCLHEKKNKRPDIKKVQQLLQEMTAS
Text: as §1
Briefly, the Invitrogen kinase assay involves use of a specific peptide substrate optimized for each kinase, containing a fluorophore at each end that make up the FRET pair. The peptide sensitivity to proteolytic cleavage depends on phosphorylation of the peptide. Non-phosphorylated peptide is cleaved by a protease while peptide phosphorylated by the kinase is not cleaved. Cleavage of the peptide disrupts the FRET between the donor (coumarin) and acceptor (fluorescein) fluorophores, resulting in an increase in the ratio of donor emission to acceptor emission. The emission ratio of coumarin to fluorescein is used to assess the reaction progress. The extent of phosphorylation is determined from the emission ratio, which is low when the kinase is active (phosphorylated peptide is not cleaved, FRET pair connected) or higher for inhibited kinase (non-phosphorylated peptide is cleaved, FRET pair separated). Thus, the assay involves a kinase reaction in the presence of varying concentrations of a given compound, a development reaction with site specific protease, and detection of the fluorescent emission ratio of coumarin and fluorscein. […] Reaction conditions for each kinase are determined to provide optimal reaction times, incubation temperature, kinase and ATP concentrations. Test samples are made up in 1× kinase buffer (50 mM HEPES pH 7.5, 50 mM MgCl2, 5 mM EGTA, 0.05% BRIJ-35) and compound at desired concentration prepared in DMSO such that the final DMSO is 1%. […] Typically, assay plates are prepared to 10 μl final volume per sample, adding 2.5 μl of compound at 4× the desired concentration in 4% DMSO (serial dilution of compound provides concentration curve), 5 μl of the desired kinase mixed with Z′-LYTE™ peptide substrate (2× in 2× kinase buffer, final peptide at 2 μM), and 2.5 μl of 4×ATP solution. All kinase except for MAP2K1 were at 10 μM ATP in the kinase reaction, while MAP2K1 was at 100 μM. Samples are mixed and the kinase reaction is incubated 1 hour at room temperature, after which 5 μl of development solution is added and mixed. After incubation for another 1 hour at room temperature, 5 μl of stop reagent is added to each sample and mixed. The fluorescence signals are measured to determine the emission ratio.

p38 = target: T3, p38 (Homo sapiens, UniProt Q16539); assay: AlphaScreen kinase assay, p38; conditions: read-out: IC50, activity toward kinase p38
T3 construct: P4292.pET15S P38A M1-S360-X MKK6DD; His6 with thrombin site (N); made in house
Description: AlphaScreen assays were done using compounds dissolved in DMSO to a concentration of 20 mM. The compounds were diluted accordingly to the desired final concentrations in each sample well, using 1:3 serial dilution for a total of 8 concentration points. Plates were prepared such that each kinase reaction is 20 μl in 1× kinase buffer, 5% DMSO and 10 μM ATP. After incubation of the kinase reaction for 1 hour at room temperature, 5 μl of donor beads in stop buffer (50 mM EDTA in 1× kinase buffer) was added, the sample was mixed and incubated for 20 minutes at room temperature before adding 5 μl of acceptor beads in stop buffer. The samples were incubated for 60 minutes at room temperature and the signal per well was read on AlphaQuest reader.

TrkA = TrkA (Homo sapiens, UniProt P04629); assay: AlphaScreen kinase assay, TrkA; conditions: read-out: IC50, activity toward kinase TrkA
Chain of TrkA (P04629 33-796): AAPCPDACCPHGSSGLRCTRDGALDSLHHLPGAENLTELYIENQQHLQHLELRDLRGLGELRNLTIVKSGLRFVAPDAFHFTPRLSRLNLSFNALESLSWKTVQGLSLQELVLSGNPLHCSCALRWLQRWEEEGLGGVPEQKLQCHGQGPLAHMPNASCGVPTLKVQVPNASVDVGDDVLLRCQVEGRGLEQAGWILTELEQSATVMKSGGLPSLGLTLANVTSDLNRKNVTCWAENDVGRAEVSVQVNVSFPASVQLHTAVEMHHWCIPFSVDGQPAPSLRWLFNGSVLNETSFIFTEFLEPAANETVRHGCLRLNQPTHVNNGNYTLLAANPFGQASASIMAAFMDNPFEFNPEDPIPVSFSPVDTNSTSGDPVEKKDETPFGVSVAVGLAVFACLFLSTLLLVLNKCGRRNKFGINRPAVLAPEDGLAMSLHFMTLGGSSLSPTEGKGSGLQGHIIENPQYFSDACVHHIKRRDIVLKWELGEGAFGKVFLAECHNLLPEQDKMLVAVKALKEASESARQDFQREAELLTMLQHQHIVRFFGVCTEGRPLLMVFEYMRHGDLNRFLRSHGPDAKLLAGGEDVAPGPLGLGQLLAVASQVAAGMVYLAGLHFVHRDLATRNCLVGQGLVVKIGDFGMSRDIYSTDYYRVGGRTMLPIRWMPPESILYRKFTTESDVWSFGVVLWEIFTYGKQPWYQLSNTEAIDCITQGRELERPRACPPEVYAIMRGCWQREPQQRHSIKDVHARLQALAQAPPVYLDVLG
Text: as §2, §3

EphB4 = EphB4 (Homo sapiens, UniProt P54760); assay: AlphaScreen kinase assay, EphB4; conditions: read-out: IC50, activity toward kinase EphB4
Chain of EphB4 (P54760 16-987): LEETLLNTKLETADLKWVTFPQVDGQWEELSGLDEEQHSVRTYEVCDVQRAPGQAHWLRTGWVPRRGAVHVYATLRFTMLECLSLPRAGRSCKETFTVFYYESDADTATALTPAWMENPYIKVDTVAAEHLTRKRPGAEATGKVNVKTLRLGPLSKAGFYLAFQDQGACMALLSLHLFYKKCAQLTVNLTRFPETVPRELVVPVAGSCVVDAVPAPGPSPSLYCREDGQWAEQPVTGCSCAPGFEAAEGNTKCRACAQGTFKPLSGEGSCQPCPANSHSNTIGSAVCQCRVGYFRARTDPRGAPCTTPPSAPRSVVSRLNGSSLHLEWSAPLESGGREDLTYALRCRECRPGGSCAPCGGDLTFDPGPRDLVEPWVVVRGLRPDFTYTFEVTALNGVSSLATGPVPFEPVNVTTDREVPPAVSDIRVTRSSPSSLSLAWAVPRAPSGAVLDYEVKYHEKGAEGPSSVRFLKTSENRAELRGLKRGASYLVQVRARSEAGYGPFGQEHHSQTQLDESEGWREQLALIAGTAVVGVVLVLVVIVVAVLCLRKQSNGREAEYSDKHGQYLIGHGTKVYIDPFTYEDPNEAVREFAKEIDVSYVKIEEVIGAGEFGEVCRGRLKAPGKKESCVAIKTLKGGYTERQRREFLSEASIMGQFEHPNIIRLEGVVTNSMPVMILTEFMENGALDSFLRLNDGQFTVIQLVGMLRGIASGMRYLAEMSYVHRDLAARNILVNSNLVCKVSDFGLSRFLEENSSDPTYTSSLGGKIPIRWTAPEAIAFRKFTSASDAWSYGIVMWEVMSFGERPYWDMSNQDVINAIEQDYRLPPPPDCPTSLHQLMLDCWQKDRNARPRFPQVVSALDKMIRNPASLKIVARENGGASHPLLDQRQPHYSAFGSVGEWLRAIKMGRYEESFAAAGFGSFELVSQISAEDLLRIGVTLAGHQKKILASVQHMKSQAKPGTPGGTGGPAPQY
Text: as §2, §3

MLK1 = MLK1 (Homo sapiens, UniProt P80192); assay: AlphaScreen kinase assay, MLK1; conditions: read-out: IC50, activity toward kinase MLK1
Chain of MLK1 (P80192 whole entry): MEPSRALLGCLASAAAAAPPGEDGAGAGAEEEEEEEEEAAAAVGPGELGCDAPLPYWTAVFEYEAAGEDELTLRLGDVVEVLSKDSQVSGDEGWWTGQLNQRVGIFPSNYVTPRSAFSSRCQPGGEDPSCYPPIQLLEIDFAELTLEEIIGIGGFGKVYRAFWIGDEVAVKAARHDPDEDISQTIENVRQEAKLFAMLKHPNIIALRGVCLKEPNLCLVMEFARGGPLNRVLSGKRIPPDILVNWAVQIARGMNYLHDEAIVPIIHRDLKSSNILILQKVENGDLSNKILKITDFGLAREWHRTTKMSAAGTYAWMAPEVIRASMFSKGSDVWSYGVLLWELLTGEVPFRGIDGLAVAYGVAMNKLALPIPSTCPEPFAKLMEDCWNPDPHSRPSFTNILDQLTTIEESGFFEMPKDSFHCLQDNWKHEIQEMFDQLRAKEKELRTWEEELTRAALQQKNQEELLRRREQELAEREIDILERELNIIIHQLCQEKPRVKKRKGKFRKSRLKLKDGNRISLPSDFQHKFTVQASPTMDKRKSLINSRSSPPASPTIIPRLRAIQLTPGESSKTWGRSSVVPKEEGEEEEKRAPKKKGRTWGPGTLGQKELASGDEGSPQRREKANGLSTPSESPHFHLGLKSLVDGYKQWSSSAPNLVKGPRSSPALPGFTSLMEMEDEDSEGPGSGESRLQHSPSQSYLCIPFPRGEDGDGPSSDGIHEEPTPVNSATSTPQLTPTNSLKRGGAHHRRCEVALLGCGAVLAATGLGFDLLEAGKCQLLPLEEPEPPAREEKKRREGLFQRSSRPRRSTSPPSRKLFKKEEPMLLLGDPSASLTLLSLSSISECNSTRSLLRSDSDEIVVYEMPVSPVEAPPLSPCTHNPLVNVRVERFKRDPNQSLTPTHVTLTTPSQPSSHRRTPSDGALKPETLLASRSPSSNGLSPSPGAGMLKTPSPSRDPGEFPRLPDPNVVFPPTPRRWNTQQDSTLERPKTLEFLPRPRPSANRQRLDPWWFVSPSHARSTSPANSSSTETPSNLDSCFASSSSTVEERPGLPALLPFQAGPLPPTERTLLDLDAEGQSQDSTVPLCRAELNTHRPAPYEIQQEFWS
Text: as §2, §3

T1 sequence (P09619 33-1106): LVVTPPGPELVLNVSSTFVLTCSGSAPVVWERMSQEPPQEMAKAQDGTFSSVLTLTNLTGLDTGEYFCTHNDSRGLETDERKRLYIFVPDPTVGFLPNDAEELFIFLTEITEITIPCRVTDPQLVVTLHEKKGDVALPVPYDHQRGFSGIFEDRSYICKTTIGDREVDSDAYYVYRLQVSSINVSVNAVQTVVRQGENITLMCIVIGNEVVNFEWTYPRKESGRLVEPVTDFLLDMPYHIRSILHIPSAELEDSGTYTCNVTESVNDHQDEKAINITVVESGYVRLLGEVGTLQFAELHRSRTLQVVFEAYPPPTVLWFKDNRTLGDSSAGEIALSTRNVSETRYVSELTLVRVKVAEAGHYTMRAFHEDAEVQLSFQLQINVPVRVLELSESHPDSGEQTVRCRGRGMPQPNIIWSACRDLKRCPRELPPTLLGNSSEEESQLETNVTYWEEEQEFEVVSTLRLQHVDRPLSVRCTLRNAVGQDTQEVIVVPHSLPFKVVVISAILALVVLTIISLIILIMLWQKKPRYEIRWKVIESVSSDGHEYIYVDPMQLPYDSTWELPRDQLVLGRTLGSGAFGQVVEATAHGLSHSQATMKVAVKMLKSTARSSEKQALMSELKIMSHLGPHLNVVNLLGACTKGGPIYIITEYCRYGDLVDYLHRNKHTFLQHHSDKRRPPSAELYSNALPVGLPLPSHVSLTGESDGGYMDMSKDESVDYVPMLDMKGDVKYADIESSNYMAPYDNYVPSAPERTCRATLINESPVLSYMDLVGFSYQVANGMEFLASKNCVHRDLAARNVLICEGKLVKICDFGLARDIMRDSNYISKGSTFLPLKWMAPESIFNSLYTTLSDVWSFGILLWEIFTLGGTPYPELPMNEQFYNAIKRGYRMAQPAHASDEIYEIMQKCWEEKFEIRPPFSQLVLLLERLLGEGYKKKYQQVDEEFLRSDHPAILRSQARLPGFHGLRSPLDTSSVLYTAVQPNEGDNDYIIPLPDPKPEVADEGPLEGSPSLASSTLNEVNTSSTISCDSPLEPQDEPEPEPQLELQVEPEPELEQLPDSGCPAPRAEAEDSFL

SMILES: CCCS(=O)(=O)Nc1ccc(F)c(C(=O)c2c[nH]c3ncc(-c4cccnc4)cc23)c1F [Compound P-0088, Propane-1-sulfonic acid [2,4-difluoro-3-(5-pyridin-3-yl-1H-pyrrolo[2,3-b]pyridine-3-carbonyl)-phenyl]-amide]
- IC50 (PDGFRB): ≤ 10 µM

SMILES: OCCOc1ccc(F)c(Cc2c[nH]c3ncc(-c4cccnc4)cc23)c1F [Compound P-1394, 2-[2,4-Difluoro-3-(5-pyridin-3-yl-1H-pyrrolo[2,3-b]pyridin-3-ylmethyl)-phenoxy]-ethanol]
- IC50 (EphA2): ≤ 10 µM

SMILES: Nc1cccc(-c2cnc3[nH]cc(C(=O)c4cc(O)ccc4F)c3c2)c1 [Compound P-0002]
- IC50 (Irak4): ≤ 10 µM

SMILES: O=C(Nc1ccc(Cc2c[nH]c3ncccc23)cc1)Nc1cccc(C(F)(F)F)c1 [Compound P-0262, 1-[4-(1H-Pyrrolo[2,3-b]pyridin-3-ylmethyl)-phenyl]-3-(3-trifluoromethyl-phenyl)-urea]
- IC50 (PDGFRB): ≤ 10 µM

SMILES: CS(=O)(=O)c1cccc(-c2cnc3[nH]cc(C(O)c4c(F)ccc(F)c4F)c3c2)c1 (stereo not shown) [Compound P-0020]
- IC50 (Irak4): ≤ 10 µM

SMILES: O=C(O)/C=C/c1cccc(-c2cnc3[nH]cc(C(=O)c4cc(O)ccc4F)c3c2)c1 [Compound P-0010]
- IC50 (p38): ≤ 10 µM

SMILES: CCCS(=O)(=O)Nc1ccc(F)c(C(=O)c2c[nH]c3ncc(OC)cc23)c1F [Compound P-0806, Propane-1-sulfonic acid [2,4-difluoro-3-(5-methoxy-1H-pyrrolo[2,3-b]pyridine-3-carbonyl)-phenyl]-amide]
- IC50 (TrkA): ≤ 10 µM
- IC50 (EphB4): ≤ 10 µM

SMILES: COc1cc(OC)cc(C(=O)c2c[nH]c3ncc(-c4cccc(NS(C)(=O)=O)c4)cc23)c1 [Compound P-1426, N-{3-[3-(3,5-Dimethoxy-benzoyl)-1H-pyrrolo[2,3-b]pyridin-5-yl]-phenyl}-methanesulfonamide]
- IC50 (MLK1): ≤ 10 µM
- IC50 (TrkA): ≤ 10 µM

SMILES: COc1cccc(C(=O)c2c[nH]c3ncc(-c4cccc(NC(C)=O)c4)cc23)c1F [Compound P-1336, N-{3-[3-(2-Fluoro-3-methoxy-benzoyl)-1H-pyrrolo[2,3-b]pyridin-5-yl]-phenyl}-acetamide]
- IC50 (MLK1): ≤ 10 µM
- IC50 (EphB4): ≤ 10 µM
- IC50 (EphA2): ≤ 10 µM
